For one assay, the target named is ALK (Homo sapiens (Human), UniProt Q9UM73). The experiment in a line: Biochemical assay for inhibitors of ALK kinase activity. To be noted: 20 nM enzyme, 8 microM ATP, 2 microM MBP. From the text:
Preparation of ALK Cytoplasmic Domain for Use in Biochemical Assay
For cloning purposes, the oligonucleotides included attB sites in order to obtain an attB-flanked PCR product suitable for cloning using the Gateway technology (Invitrogen). Furthermore, for purification purposes, forward primer included a PreScission cleavage site (Amersham Biosciences). The resulting PCR product was cloned in the baculovirus expression vector pVL1393 (Invitrogen) Gateway-modified. For expression and purification purpose, a GST tag was added N-terminal to the ALK cytoplasmic domain. Cloning was performed according to the protocols described in the Gateway manual (Invitrogen).
Affinity purified GST-ALK was loaded on a Heparin Sepharose™ FF (Amersham Biosciences) column and eluted with 50 mM NaCl, 25 mM TRIS pH 7.5, 2 mM DTT, 20% glycerol.
Biochemical Assay for Inhibitors of ALK Kinase Activity

For a further assay, the target named is IGF-1R (Homo sapiens (Human), UniProt P08069). The experiment in a line: Biochemical assay for inhibitors of IGF-1R kinase activity. To be noted: 6 nM enzyme, 6 microM ATP, 10 microM peptide substrate.
IGF-1R, sequence (P08069 960-1367): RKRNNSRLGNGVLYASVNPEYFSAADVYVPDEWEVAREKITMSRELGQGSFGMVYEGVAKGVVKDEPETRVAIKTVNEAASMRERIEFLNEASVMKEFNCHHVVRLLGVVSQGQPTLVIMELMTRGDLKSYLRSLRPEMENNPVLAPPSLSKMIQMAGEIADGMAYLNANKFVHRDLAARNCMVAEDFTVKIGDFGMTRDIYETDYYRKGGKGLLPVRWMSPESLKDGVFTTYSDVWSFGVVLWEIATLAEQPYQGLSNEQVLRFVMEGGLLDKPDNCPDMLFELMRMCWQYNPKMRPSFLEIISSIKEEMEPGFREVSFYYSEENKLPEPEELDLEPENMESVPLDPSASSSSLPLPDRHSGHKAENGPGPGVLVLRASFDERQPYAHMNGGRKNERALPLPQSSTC

ALK, sequence (Q9UM73 1060-1620): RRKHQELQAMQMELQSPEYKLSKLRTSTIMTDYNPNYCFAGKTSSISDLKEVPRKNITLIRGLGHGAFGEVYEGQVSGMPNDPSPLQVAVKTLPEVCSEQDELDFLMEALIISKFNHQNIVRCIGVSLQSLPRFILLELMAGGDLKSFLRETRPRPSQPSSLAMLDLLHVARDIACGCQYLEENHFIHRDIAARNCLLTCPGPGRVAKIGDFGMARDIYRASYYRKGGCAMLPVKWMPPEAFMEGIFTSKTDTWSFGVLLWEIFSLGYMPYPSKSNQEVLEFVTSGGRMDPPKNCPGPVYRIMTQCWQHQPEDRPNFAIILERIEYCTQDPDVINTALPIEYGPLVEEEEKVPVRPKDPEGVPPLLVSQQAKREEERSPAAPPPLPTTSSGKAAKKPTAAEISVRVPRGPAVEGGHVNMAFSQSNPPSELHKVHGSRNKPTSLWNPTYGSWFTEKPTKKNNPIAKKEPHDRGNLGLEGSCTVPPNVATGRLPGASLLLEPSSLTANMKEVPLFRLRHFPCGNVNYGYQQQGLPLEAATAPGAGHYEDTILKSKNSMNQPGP
Procedure for IGF-1R: Biochemical Assay for Inhibitors of IGF-1 R Kinase Activity The inhibitory activity of putative kinase inhibitors and the potency of selected compounds were determined using a trans-phosphorylation assay. A specific substrate was incubated with the kinase in appropriate buffer conditions in the presence of ATP traced with ^33P-γ-ATP (gamma phosphate-labeled, RedivueTM Code Number AH9968, 1000-3000 Ci/mmole, Amersham Biosciences Piscataway, N.J., USA), optimal cofactors and test compound. At the end of the phosphorylation reaction, more than 98% cold and radioactive ATP were captured by an excess of Dowex ion exchange resin. The resin was allowed to settle to the bottom of reaction wells by gravity. Supernatant, containing substrate peptide, was subsequently withdrawn and transferred into a counting plate, and radioactivity (corresponding to phosphate incorporated into peptide) was evaluated by β-counting. […] Prior to starting the kinase inhibition assay, IGF-1R was pre-phosphorylated in order to linearize reaction kinetics. […] The peptide was obtained in batches of >95% peptide purity from American Peptide Company, Inc. (Sunnyvale, Calif., USA). […] Compounds showing desired inhibition were further analysed in order to study the potency of the inhibitor through IC50 calculation. […]

In the case of `CN1CCN(c2ccc(C(=O)Nc3n[nH]c4ccc(Cc5cc(F)cc(F)c5)cc34)cc2)CC1` [Cpd 4, N-[5-(3,5-Difluoro-benzyl)-1H-indazol-3-yl]-4-(4-methyl-piperazin-1-yl)-benzamide], the IC50 – broadly, the concentration that inhibits the measured activity by half – at ALK came to 0.207 µM. The same measure, in the same setting: as for `COCCNc1cc(N2CCN(C)CC2)ccc1C(=O)Nc1n[nH]c2ccc(Cc3cc(F)cc(F)c3)cc12` [Cpd 26, N-[5-(3,5-Difluoro-benzyl)-1H-indazol-3-yl]-2-(2-methoxy-ethylamino)-4-(4-methyl-piperazin-1-yl)-benzamide], the figure is 0.411 µM.

With `CN1CCN(c2ccc(C(=O)Nc3n[nH]c4ccc(Cc5cc(F)cc(F)c5)cc34)c(NC3CCCCC3)c2)CC1` [Cpd 18, 2-Cyclohexylamino-N-[5-(3,5-difluoro-benzyl)-1H-indazol-3-yl]-4-(4-methyl-piperazin-1-yl)-benzamide], the concentration for half-maximal inhibition (IC50) was 1.77 µM on ALK and 6.07 µM on IGF-1R.

The record behind these values is patent US9029356B2, “Substituted indazole derivatives active as kinase inhibitors” (Nerviano Medical Services S.R.L., priority 2007, dated 2015).
